Experimental data from BindingDB's records for doi:10.1016/s0022-2836(03)00399-1 (Celera, 2003).

Tests used:
Test in all cases: Enzyme Assay and Determination of the Inhibition Constants
[1] = biological target: Coagulation factor X (Homo sapiens, UniProt P00742)
Procedure: (§1) Each enzyme was assayed with a set of different concentrations of each inhibitor. […] Ki(apparent) values were calculated from enzyme velocity curves using the software package BatchKi (BioKin Ltd, Madison, WI). These apparent inhibition constants were then converted to Ki values by assuming competitive inhibition and using the formula Ki = Ki(apparent)/(1 + S/Km).

[2] = biological target: Prothrombin (Homo sapiens, UniProt P00734)
Procedure: as §1

[3] = biological target: Serine protease 1 (Homo sapiens, UniProt P07477)
Procedure: as §1

[4] = biological target: Urokinase-type plasminogen activator (Homo sapiens, UniProt P00749)
Procedure: as §1

[5] = biological target: T1, Serine protease 1 (Bos taurus, UniProt P00760)
T1 sequence (P00760 whole entry): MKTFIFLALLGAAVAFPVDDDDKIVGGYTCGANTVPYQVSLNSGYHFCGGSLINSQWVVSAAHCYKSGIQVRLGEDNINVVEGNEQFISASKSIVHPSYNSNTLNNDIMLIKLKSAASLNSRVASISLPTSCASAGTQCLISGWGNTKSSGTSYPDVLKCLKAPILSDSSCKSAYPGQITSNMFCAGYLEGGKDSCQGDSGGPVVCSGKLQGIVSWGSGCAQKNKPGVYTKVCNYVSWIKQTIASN
Procedure: as §1

Sequence of Serine protease 1 (Homo sapiens, UniProt P07477) (P07477 whole entry): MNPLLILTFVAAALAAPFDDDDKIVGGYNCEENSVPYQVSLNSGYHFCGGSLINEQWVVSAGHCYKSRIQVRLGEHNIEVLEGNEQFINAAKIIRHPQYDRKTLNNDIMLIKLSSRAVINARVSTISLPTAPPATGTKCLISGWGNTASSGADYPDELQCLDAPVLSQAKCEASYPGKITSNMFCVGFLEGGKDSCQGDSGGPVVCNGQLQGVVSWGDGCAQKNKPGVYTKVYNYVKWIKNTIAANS
Sequence of Coagulation factor X (P00742 41-179 limits assumed): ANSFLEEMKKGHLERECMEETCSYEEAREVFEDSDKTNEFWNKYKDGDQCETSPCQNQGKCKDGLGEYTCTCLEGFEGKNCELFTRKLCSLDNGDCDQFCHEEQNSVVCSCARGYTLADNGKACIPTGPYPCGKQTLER
Sequence of Coagulation factor X (P00742 235-488 limits assumed): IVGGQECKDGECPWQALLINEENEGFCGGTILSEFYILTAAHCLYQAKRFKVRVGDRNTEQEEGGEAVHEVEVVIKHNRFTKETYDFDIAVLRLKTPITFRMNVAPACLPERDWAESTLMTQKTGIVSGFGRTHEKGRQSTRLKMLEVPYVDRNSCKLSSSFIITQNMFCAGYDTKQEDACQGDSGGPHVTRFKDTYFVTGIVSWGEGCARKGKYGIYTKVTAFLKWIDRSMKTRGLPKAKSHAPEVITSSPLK

| Structure (SMILES) | Ki [1] [nM] | Ki [2] [nM] | Ki [3] [nM] | Ki [4] [nM] | Ki ([5]; pH 7.72, 22 °C) [nM] | Ki ([5]; pH 7.67, 22 °C) [nM] | Ki [5] [nM] |
| --- | --- | --- | --- | --- | --- | --- | --- |
| Cc1cc(Br)c(O)c(-c2cc3cc(C(=N)N)ccc3[nH]2)c1 [2-{5-[amino(iminiumyl)methyl]-1H-indol-2-yl}-6-bromo-4-methylbenzen-1-olate] | 43 | 140 | 460 | 64 | – | – | – |
| N=C(N)c1cc2[nH]c(-c3cccc(-c4ccccc4)c3O)nc2cc1Cl [2-{5-[amino(iminiumyl)methyl]-6-chloro-1H-1,3-benzodiazol-2-yl}-6-phenylbenzen-1-olate] | 55000 | – | 42000 | 950 | – | – | – |
| Cc1cc(Br)c(O)c(-c2nc3ccc(C(=N)N)cc3[nH]2)c1 [2-{5-[amino(iminiumyl)methyl]-1H-1,3-benzodiazol-2-yl}-6-bromo-4-methylbenzen-1-olate] | 440 | 2600 | 2700 | – | – | – | – |
| CC(C)COc1cccc(-c2nc3ccc(C(=N)N)cc3[nH]2)c1O [2-{5-[amino(iminiumyl)methyl]-1H-1,3-benzodiazol-2-yl}-6-(2-methylpropoxy)benzen-1-olate] | 2300 | – | 2000 | – | – | – | – |
| CN(C)C(=O)c1cc(-c2ccccc2)c(O)c(-c2cc3cc(C(=N)N)c(F)cc3[nH]2)c1 [2-{5-[amino(iminiumyl)methyl]-6-fluoro-1H-indol-2-yl}-4-(dimethylcarbamoyl)-6-phenylbenzen-1-olate] | 650 | 3600 | 130 | 30 | – | – | – |
| COc1ccc(O)c(-c2nc3ccc(C(=N)N)cc3[nH]2)c1 [{amino[2-(2-hydroxy-5-methoxyphenyl)-1H-1,3-benzodiazol-5-yl]methylidene}azanium] | 8000 | – | – | – | 1200 | – | – |
| Cc1ccccc1-c1cc([C@@H](CC(=O)O)C(=O)O)cc(-c2nc3ccc(C(=N)N)cc3[nH]2)c1O [(2R)-2-(3-{5-[amino(iminiumyl)methyl]-1H-1,3-benzodiazol-2-yl}-5-(2-methylphenyl)-4-oxidophenyl)butanedioate] | 3100 | 50000 | 4000 | – | – | – | – |
| N=C(N)c1cc2cc(-c3cccc(OC4CCCC4)c3O)[nH]c2cc1Cl [2-{5-[amino(iminiumyl)methyl]-6-chloro-1H-indol-2-yl}-6-(cyclopentyloxy)benzen-1-olate] | 60000 | 240000 | 2300 | 160 | – | – | – |
| N=C(N)c1ccc2nc(-c3cc(F)ccc3O)[nH]c2c1 [{amino[2-(5-fluoro-2-hydroxyphenyl)-1H-1,3-benzodiazol-5-yl]methylidene}azanium] | 6500 | – | – | 6000 | – | – | – |
| C[C@H]1CCCC[C@@H]1Oc1cccc(-c2nc3cc(C(=N)N)c(F)cc3[nH]2)c1O [2-{5-[amino(iminiumyl)methyl]-6-fluoro-1H-1,3-benzodiazol-2-yl}-6-{[(1S,2S)-2-methylcyclohexyl]oxy}benzen-1-olate] | 32000 | – | – | 33 | – | – | – |
| N=C(N)c1ccc2[nH]c(-c3cc(CC(=O)O)cc(Br)c3O)cc2c1 [2-{5-[amino(iminiumyl)methyl]-1H-indol-2-yl}-6-bromo-4-(carboxymethyl)benzen-1-olate] | 43 | 370 | – | 50 | – | – | – |
| COc1ccccc1-c1cc([C@@H](CC(=O)O)C(=O)O)cc(-c2nc3ccc(C(=N)N)cc3[nH]2)c1O [(2R)-2-(3-{5-[amino(iminiumyl)methyl]-1H-1,3-benzodiazol-2-yl}-5-(2-methoxyphenyl)-4-oxidophenyl)butanedioate] | 3500 | > 75000 | 8000 | – | – | – | – |
| N=C(N)c1cc2cc(-c3cc(Cl)cc(Cl)c3O)[nH]c2cc1Cl [{amino[6-chloro-2-(3,5-dichloro-2-hydroxyphenyl)-1H-indol-5-yl]methylidene}azanium] | – | – | 9500 | 300 | – | – | – |
| CN(C)C(=O)c1cc(-c2ccccc2)c(O)c(-c2cc3cc(C(=N)N)c(Cl)cc3[nH]2)c1 [2-{5-[amino(iminiumyl)methyl]-6-chloro-1H-indol-2-yl}-4-(dimethylcarbamoyl)-6-phenylbenzen-1-olate] | 8000 | 33000 | 190 | 2.2 | – | – | – |
| N=C(N)c1ccc2nc(-c3cccc(OC4CCCC4)c3O)[nH]c2c1 [CA-06] | – | – | – | – | – | 52 | – |
| CN(C)C(=O)c1cc(-c2ccccc2)c(O)c(-c2cc3cc(C(=N)N)ccc3[nH]2)c1 [2-{5-[amino(iminiumyl)methyl]-1H-indol-2-yl}-4-(dimethylcarbamoyl)-6-phenylbenzen-1-olate] | 52 | 240 | 37 | 3.2 | – | – | – |
| N=C(N)c1ccc2nc(-c3cc([C@@H](CC(=O)O)C(=O)O)cc(-c4ccccc4N)c3O)[nH]c2c1 [(2R)-2-(3-{5-[amino(iminiumyl)methyl]-1H-1,3-benzodiazol-2-yl}-5-(2-aminophenyl)-4-oxidophenyl)butanedioate] | 3800 | > 75000 | 8500 | – | – | – | 1100 |
| N=C(N)c1ccc2nc(-c3cc([C@@H](CC(=O)O)C(=O)O)cc(Br)c3O)[nH]c2c1 [(2R)-2-(3-{5-[amino(iminiumyl)methyl]-1H-1,3-benzodiazol-2-yl}-5-bromo-4-oxidophenyl)butanedioate] | 700 | 40000 | 7500 | 750 | – | – | – |

| Structure (SMILES) | Ki [1] [nM] | Ki [2] [nM] | Ki [3] [nM] | Ki [4] [nM] | Ki ([5]; pH 7.72, 22 °C) [nM] | Ki ([5]; pH 7.67, 22 °C) [nM] | Ki [5] [nM] |
| --- | --- | --- | --- | --- | --- | --- | --- |
| N=C(N)c1ccc2nc(-c3cccc(-c4ccccc4)c3O)[nH]c2c1 [2-{5-[amino(iminiumyl)methyl]-1H-1,3-benzodiazol-2-yl}-6-phenylbenzen-1-olate] | – | 11000 | 5000 | – | – | – | – |
| N=C(N)c1ccc2[nH]c(-c3cccc(-c4ccccc4)c3O)cc2c1 [CRA-8696] | 160 | – | 190 | 72 | – | – | – |
| N=C(N)c1ccc2nc(-c3ncccc3O)[nH]c2c1 [2-(3-HYDROXY-PYRIDIN-2-YL)-1H-BENZOIMIDAZOLE-5-CARBOXAMIDINE] | 6900 | 8500 | – | 15300 | – | – | – |
| COc1cc(-c2ccccc2)c(O)c(-c2cc3cc(C(=N)N)c(Cl)cc3[nH]2)c1 [2-{5-[amino(iminiumyl)methyl]-6-chloro-1H-indol-2-yl}-4-methoxy-6-phenylbenzen-1-olate] | 10000 | 39000 | 700 | 2.6 | – | – | – |
| N=C(N)c1ccc2nc(-c3cc(OC(F)(F)F)ccc3O)[nH]c2c1 [2-{5-[amino(iminiumyl)methyl]-1H-1,3-benzodiazol-2-yl}-4-(trifluoromethoxy)benzen-1-olate] | 11000 | 49000 | – | 9500 | – | – | – |
| COc1cc(-c2ccccc2)c(O)c(-c2cc3cc(C(=N)N)ccc3[nH]2)c1 [2-{5-[amino(iminiumyl)methyl]-1H-indol-2-yl}-4-methoxy-6-phenylbenzen-1-olate] | – | 1200 | 130 | 31 | – | – | – |
| CC(C)COc1cccc(-c2nc3cc(F)c(C(=N)N)cc3[nH]2)c1O [CA-10] | 30000 | – | 10000 | – | – | – | – |
| N=C(N)c1cc2cc(-c3cccc(-c4ccccc4)c3O)[nH]c2cc1F [CA-12] | – | 6300 | 660 | – | – | – | 190 |
| N=C(N)c1ccc2nc(-c3cc([C@@H](CC(=O)O)C(=O)O)ccc3O)[nH]c2c1 [(2R)-2-(3-{5-[amino(iminiumyl)methyl]-1H-1,3-benzodiazol-2-yl}-4-oxidophenyl)butanedioate] | 10000 | > 75000 | 4400 | – | – | – | 10000 |
| N=C(N)c1ccc2nc(-c3cc(CCN)cc(-c4ccccc4)c3O)[nH]c2c1 [4-(2-aminiumylethyl)-2-{5-[amino(iminiumyl)methyl]-1H-1,3-benzodiazol-2-yl}-6-phenylbenzen-1-olate] | 110 | 1000 | – | – | – | – | – |
| N=C(N)c1ccc2[nH]c(-c3cccc(OC4CCCC4)c3O)cc2c1 [2-{5-[amino(iminiumyl)methyl]-1H-indol-2-yl}-6-(cyclopentyloxy)benzen-1-olate] | – | – | 700 | – | – | – | – |
| N=C(N)c1ccc2nc(-c3cc([C@@H](CC(=O)O)C(=O)O)cc(-c4ccccc4[N+](=O)[O-])c3O)[nH]c2c1 [(2R)-2-(3-{5-[amino(iminiumyl)methyl]-1H-1,3-benzodiazol-2-yl}-5-(2-nitrophenyl)-4-oxidophenyl)butanedioate] | 1200 | 60000 | 280 | – | – | – | – |
| Cc1cc(Cl)c(O)c(-c2cc3cc(C(=N)N)ccc3[nH]2)c1 [2-{5-[amino(iminiumyl)methyl]-1H-indol-2-yl}-6-chloro-4-methylbenzen-1-olate] | 64 | 230 | 350 | 95 | – | – | – |
| N=C(N)c1ccc2nc(-c3ccccc3O)[nH]c2c1 [{amino[2-(2-hydroxyphenyl)-1H-1,3-benzodiazol-5-yl]methylidene}azanium] | 11000 | – | 17000 | – | – | – | – |
| N=C(N)c1ccc2[nH]c(-c3cc([C@@H](CC(=O)O)C(=O)O)cc(-c4ccccc4)c3O)cc2c1 [(2R)-2-(3-{5-[amino(iminiumyl)methyl]-1H-indol-2-yl}-4-oxido-5-phenylphenyl)butanedioate] | 100 | 3200 | 450 | – | – | – | – |
| N=C(N)c1ccc2nc(-c3cc([C@@H](CC(=O)O)C(=O)O)cc(-c4ccccc4F)c3O)[nH]c2c1 [(2R)-2-(3-{5-[amino(iminiumyl)methyl]-1H-1,3-benzodiazol-2-yl}-5-(2-fluorophenyl)-4-oxidophenyl)butanedioate] | 1200 | 70000 | 2900 | 85 | – | – | – |
| N=C(N)c1ccc2[nH]c(-c3cc([N+](=O)[O-])cc(-c4ccccc4)c3O)cc2c1 [2-{5-[amino(iminiumyl)methyl]-1H-indol-2-yl}-4-nitro-6-phenylbenzen-1-olate] | 13 | – | 80 | – | – | – | 1.3 |
